Source: US8217035B2, “Pyrimidine derivatives used as PI-3-kinase inhibitors” (Novartis AG, priority 2006, dated 2012)
Read-outs that look alike come from different tables or passages of the source.

Tests used:
PI3 kinase alpha = PI3 kinase alpha (Homo sapiens, UniProt P42336); assay: PI3K ATP depletion assay (Biological Method 1, Assay 3; KinaseGlo luminescence); type: biochemical; details: ATP depletion assay, read-out: PI3 Kinase Alpha, IC50
Summary of the method: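 Compound in DMSO was mixed with 10 nM PI3 kinase and 5 μg/mL phosphatidylinositol, and the reaction was started with 2 μM ATP. It ran to about 50% ATP depletion and was stopped with KinaseGlo.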

[1] = system: pSer473 Akt in A2780 cells; assay: pSer473 Akt assay to monitor PI3K pathway in A2780 cells (Biological Method 2, MSD); type: cell-based; details: Homo sapiens, inhibition of Akt phosphorylation
Method: In this method, an assay for measuring the PI3K-mediated pSer473-Akt status after treatment with representative inhibitor compounds of the invention is described.
A2780 cells were cultured in DMEM supplemented with 10% FBS. L-glutamine, sodium pyruvate, and antibiotics. Cells were plated in the same medium at a density of 15,000 cells per well into 96 well tissue culture plates, with outside wells vacant, and allowed to adhere overnight.
Test compounds supplied in DMSO were diluted further into DMSO at 500 times the desired final concentrations before dilution into culture media to 2 times the final concentrations. Equal volumes of 2× compounds were added to the cells in 96 well plates and incubated at 37° C. for one hour. The media and compounds were then removed, the plates chilled and cells lysed in a lysis buffer (150 mM NaCl, 20 mM Tris pH 7.5, 1 mM EDTA, 1 mM EGTA, 1% Triton X-100) supplemented with phosphatase and protease inhibitors. After thorough mixing, lysates were transferred to both pSer473Akt and total Akt assay plates from Meso Scale Discovery (MSD), and incubated overnight with shaking at 4° C.
The assays were read on a SECTOR Imager 6000 instrument (Meso Scale Discovery). Ratios of the signal from pSer473Akt and total Akt assays were used to correct for any variability and the percent inhibition of pSer473Akt from the total signal seen in cells treated with compound versus DMSO alone was calculated and used to determine EC50 values for each compound.

[2] = system: A2780 ovarian cancer cells; assay: Cellular proliferation in A2780 cells, Cell Titer Glo (Biological Method 4); type: cell-based; details: Homo sapiens
Summary of the method: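 A2780 cells seeded at 1,000/well in DMEM with 10% FBS, at least 2 h before compound, then exposed 72 h at 37 °C, 5% CO2. Viable cells measured by Cell Titer Glo luminescence; EC50 calculated from duplicate conditions.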

[3] = ovarian cancer cell line A2780, Biological Method 4

Chain of PI3 kinase alpha (P42336 whole entry): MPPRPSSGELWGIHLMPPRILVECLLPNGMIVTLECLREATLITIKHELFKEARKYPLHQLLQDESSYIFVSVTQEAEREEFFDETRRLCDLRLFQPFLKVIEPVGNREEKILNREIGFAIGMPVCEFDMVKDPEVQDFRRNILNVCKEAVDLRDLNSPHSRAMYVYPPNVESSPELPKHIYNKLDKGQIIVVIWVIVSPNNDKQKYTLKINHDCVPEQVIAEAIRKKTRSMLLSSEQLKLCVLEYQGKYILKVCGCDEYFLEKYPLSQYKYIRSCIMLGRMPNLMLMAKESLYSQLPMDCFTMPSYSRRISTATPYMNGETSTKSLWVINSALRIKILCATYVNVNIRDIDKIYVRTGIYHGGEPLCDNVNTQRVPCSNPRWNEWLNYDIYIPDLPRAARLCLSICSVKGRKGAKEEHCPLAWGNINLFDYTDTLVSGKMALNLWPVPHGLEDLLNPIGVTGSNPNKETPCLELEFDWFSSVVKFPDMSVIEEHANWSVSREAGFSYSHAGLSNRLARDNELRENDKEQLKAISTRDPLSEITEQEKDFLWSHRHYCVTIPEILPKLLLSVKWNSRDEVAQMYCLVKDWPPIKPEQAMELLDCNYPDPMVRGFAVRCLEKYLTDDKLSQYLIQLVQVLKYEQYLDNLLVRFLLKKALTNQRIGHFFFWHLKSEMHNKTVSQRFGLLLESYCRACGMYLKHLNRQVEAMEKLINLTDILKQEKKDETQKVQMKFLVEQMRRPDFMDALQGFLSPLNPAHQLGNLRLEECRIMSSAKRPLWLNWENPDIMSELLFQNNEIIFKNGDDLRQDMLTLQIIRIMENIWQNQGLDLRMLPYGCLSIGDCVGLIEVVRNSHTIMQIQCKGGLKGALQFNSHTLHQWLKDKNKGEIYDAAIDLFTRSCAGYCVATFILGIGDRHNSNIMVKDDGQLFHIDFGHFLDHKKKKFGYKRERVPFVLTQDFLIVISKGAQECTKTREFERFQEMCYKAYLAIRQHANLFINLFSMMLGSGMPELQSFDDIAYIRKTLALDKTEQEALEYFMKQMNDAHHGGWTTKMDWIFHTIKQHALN
Chain of PI3 kinase alpha (P27986 whole entry partner): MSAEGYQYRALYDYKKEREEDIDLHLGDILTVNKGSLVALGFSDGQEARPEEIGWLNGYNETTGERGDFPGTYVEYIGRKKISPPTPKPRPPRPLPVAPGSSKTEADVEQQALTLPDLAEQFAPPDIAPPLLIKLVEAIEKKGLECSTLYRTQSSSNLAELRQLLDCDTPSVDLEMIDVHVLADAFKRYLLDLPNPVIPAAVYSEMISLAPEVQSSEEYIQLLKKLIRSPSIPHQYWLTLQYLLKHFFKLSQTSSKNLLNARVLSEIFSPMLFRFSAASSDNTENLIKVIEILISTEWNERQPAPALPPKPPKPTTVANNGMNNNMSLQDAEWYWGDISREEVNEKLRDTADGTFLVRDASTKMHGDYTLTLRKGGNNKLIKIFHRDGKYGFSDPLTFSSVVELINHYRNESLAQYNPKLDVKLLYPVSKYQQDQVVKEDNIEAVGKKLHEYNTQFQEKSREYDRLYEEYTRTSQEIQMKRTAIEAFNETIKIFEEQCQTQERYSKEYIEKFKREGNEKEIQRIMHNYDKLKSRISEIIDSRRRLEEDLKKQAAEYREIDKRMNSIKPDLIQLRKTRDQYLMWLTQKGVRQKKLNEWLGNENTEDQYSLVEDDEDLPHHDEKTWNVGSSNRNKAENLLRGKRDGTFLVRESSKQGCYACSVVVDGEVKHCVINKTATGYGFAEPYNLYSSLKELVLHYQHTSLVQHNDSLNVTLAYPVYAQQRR

Row | Structure (SMILES) | IC50 (PI3 kinase alpha) | EC50 ([1]; A2780 cells) | EC50 ([2]; ovarian cancer cell line A2780) | IC50 (PI3 kinase alpha; Biological Method 1) | EC50 ([1]; A2780, Biological Method 2) | EC50 [2, 3]
1 | Nc1ccc(-c2cc(Nc3ccc4ncccc4c3)nc(N3CCOCC3)n2)cn1 [Compound 82] | < 1000 nM | < 1000 nM | < 1000 nM |  |  | 
2 | CC(C)C(=O)N1CCC(Oc2cc(-c3cnc(N)nc3N)nc(N3CCOCC3)n2)CC1 [Compound 134] | < 1000 nM | < 1000 nM | < 1000 nM |  |  | 
3 | CC(C)(C)OC(=O)N1CCC(Oc2cc(-c3cnc(N)nc3C(F)(F)F)nc(N3CCOCC3)n2)CC1 [Compound 27] | < 1000 nM | < 1000 nM | < 1000 nM |  |  | 
4 | Nc1ncc(-c2cc(O[C@H]3CCOC3)nc(N3CCOCC3)n2)c(=O)[nH]1 [Compound 39] | < 1000 nM | < 1000 nM | < 1000 nM |  |  | 
5 | CC(C)N1CCC(Oc2cncc(-c3cc(-c4cnc(N)cc4C(F)(F)F)nc(N4CCOCC4)n3)c2)C1 (stereo not drawn) [Compound 129] | < 1000 nM | < 1000 nM | < 10000 nM |  |  | 
6 | CS(=O)(=O)c1cccc(-c2cc(-c3cnc(N)nc3N)nc(N3CCOCC3)n2)c1 [Compound 125] | < 1000 nM | < 1000 nM | < 1000 nM |  |  | 
7 | Cc1c(Nc2ncc(C#N)s2)nc(N2CCOCC2)nc1-c1cnc(N)nc1 [Compound 71] | < 1000 nM | < 1000 nM | < 1000 nM |  |  | 
8 | CC(=O)N1CCC(Oc2cc(-c3cnc(N)nc3N)nc(N3CCOCC3)n2)CC1 [Compound 99] | < 1000 nM | < 1000 nM | < 1000 nM |  |  | 
9 | Nc1ncc(-c2cc(Nc3ccncc3)nc(N3CCOCC3)n2)cn1 [Compound 44] | < 1000 nM | < 1000 nM | < 1000 nM |  |  | 
10 | Cc1c(Nc2ccc(OC3CCN(C)CC3)nc2)nc(N2CCOCC2)nc1-c1cnc(N)nc1 [Compound 42] | < 1000 nM | < 1000 nM | < 1000 nM |  |  | 
11 | COC(=O)N1CCC[C@@H](Oc2cc(-c3cnc(N)nc3N)nc(N3CCOCC3)n2)C1 [Compound 63] | < 1000 nM | < 1000 nM | < 1000 nM |  |  | 
12 | Nc1ncc(-c2cc(Nc3cccc(F)c3)nc(N3CCOCC3)n2)cn1 [Compound 111] | < 1000 nM | < 1000 nM | < 10000 nM |  |  | 
13 | COc1cccc2ncc(Nc3cc(-c4cnc(N)nc4)nc(N4CCOCC4)n3)cc12 [Compound 7] | < 1000 nM | < 1000 nM | < 1000 nM |  |  | 
14 | Nc1ncc(-c2cc(OC3CCN(C(=O)OC4CCCC4)CC3)nc(N3CCOCC3)n2)c(=O)[nH]1 [Compound 47] | < 1000 nM | < 1000 nM | < 1000 nM |  |  | 
15 | Nc1ncc(-c2cc(Nc3ccc(F)cc3)nc(N3CCOCC3)n2)cn1 [Compound 123] | < 1000 nM | < 1000 nM | < 10000 nM |  |  | 
16 | Nc1ncc(-c2cc(N3CCOc4ccccc43)nc(N3CCOCC3)n2)cn1 [Compound 65] | < 1000 nM | < 1000 nM | < 1000 nM |  |  | 
17 | N#Cc1cc(N)ncc1-c1cc(Nc2ccncc2C(F)(F)F)nc(N2CCOCC2)n1 [Compound 94] | < 1000 nM | < 1000 nM | < 1000 nM |  |  | 
18 | Nc1ncc(-c2cc(Nc3ccccc3F)nc(N3CCOCC3)n2)cn1 [Compound 87] | < 1000 nM | < 1000 nM | < 10000 nM |  |  | 
19 | Nc1ncc(-c2cc(Nc3ccncc3C(F)(F)F)nc(N3CCOCC3)n2)cn1 [Compound 43] | < 1000 nM | < 1000 nM | < 1000 nM |  |  | 
20 | Nc1cc(F)c(-c2cc(Nc3cnc4ccccc4c3)nc(N3CCOCC3)n2)cn1 [Compound 4] | < 1000 nM | < 1000 nM | < 1000 nM |  |  | 
21 | Nc1ccc(-c2cc(-c3cccnc3NCCO)nc(N3CCOCC3)n2)cn1 [Compound 104] | < 1000 nM | < 1000 nM | < 10000 nM |  |  | 
22 | Nc1ncc(-c2cc(OC3CCN(C(=O)c4ccccc4)CC3)nc(N3CCOCC3)n2)c(=O)[nH]1 [Compound 48] | < 1000 nM | < 1000 nM | < 1000 nM |  |  | 
23 | CC(C)N1CCC(Oc2ccc(Nc3cc(-c4cnc(N)cc4C(F)(F)F)nc(N4CCOCC4)n3)cn2)C1 (stereo not drawn) [Compound 93] | < 1000 nM | < 1000 nM | < 1000 nM |  |  | 

Continued, values first:

Row | IC50 (PI3 kinase alpha) | EC50 ([1]; A2780 cells) | EC50 ([2]; ovarian cancer cell line A2780) | IC50 (PI3 kinase alpha; Biological Method 1) | EC50 ([1]; A2780, Biological Method 2) | EC50 [2, 3] | Structure (SMILES)
24 | < 1000 nM | < 1000 nM | < 1000 nM |  |  |  | Nc1ccc(-c2cc(Nc3cnc4ccc(OCCN5CCCC5)cc4c3)nc(N3CCOCC3)n2)cn1 [Compound 181]
25 | < 1000 nM | < 1000 nM | < 10000 nM |  |  |  | CC(=O)c1cccc(Nc2cc(-c3ccc(N)nc3)nc(N3CCOCC3)n2)c1 [Compound 174]
26 | < 1000 nM | < 1000 nM | < 1000 nM |  |  |  | COc1ccc2ncc(Nc3nc(N4CCOCC4)nc(-c4cnc(N)nc4)c3C)cc2c1 [Compound 177]
27 | < 1000 nM | < 1000 nM | < 1000 nM |  |  |  | Nc1ncc(-c2cc(Nc3ccncc3C(F)(F)F)nc(N3CCOCC3)n2)c(C(F)(F)F)n1 [Compound 158]
28 | < 1000 nM | < 1000 nM | < 1000 nM |  |  |  | Nc1ccc(-c2cc(-n3ncc4c(N)cccc43)nc(N3CCOCC3)n2)cn1 [Compound 168]
29 | < 1000 nM | < 1000 nM | < 10000 nM |  |  |  | CS(=O)(=O)Nc1ccccc1-c1cc(-c2cnc(N)cc2C(F)(F)F)nc(N2CCOCC2)n1 [Compound 159]
30 | < 1000 nM | < 1000 nM | < 1000 nM |  |  |  | Nc1ccc(-c2cc(Nc3ccncc3)nc(N3CCOCC3)n2)cn1 [Compound 184]
31 | < 1000 nM | < 1000 nM | < 1000 nM |  |  |  | Nc1ccc(-c2cc(Nc3ccncc3C(F)(F)F)nc(N3CCOCC3)n2)cn1 [Compound 142]
32 | < 1000 nM | < 1000 nM | < 1000 nM |  |  |  | Nc1cc(C(F)(F)F)c(-c2cc(Nc3ccc(OC4CCNCC4)nc3)nc(N3CCOCC3)n2)cn1 [Compound 150]
33 |  |  |  | < 1000 nM | < 10000 nM | < 10000 nM | Cc1c(-c2cnc(N)nc2)nc(N2CCOCC2)nc1-c1ccnc(Nc2ncc(-c3ccccc3)s2)c1 [Compound 215]
34 | < 1000 nM | < 1000 nM | < 1000 nM |  |  |  | Cn1cnnc1-c1cccc(Nc2cc(-c3cnc(N)cc3C(F)(F)F)nc(N3CCOCC3)n2)c1 [Compound 171]
35 | < 1000 nM | < 1000 nM | < 1000 nM |  |  |  | CS(=O)(=O)Nc1ncccc1-c1cc(-c2cnc(N)cc2C#N)nc(N2CCOCC2)n1 [Compound 136]
36 | < 1000 nM | < 1000 nM | < 1000 nM |  |  |  | Cc1nc(N)ncc1-c1nc(N2CCOCC2)nc(Nc2cnc3ccccc3c2)c1C [Compound 185]
37 |  |  |  | < 1000 nM | < 10000 nM | < 1000 nM | Nc1cc(C(F)(F)F)c(-c2cc(Nc3cccc(S(=O)(=O)N4CCCCC4)c3)nc(N3CCOCC3)n2)cn1 [Compound 207]
38 | < 1000 nM | < 1000 nM | < 25000 nM |  |  |  | CS(=O)(=O)Nc1nc2ccccc2cc1-c1cc(-c2ccc(N)nc2)nc(N2CCOCC2)n1 [Compound 157]
39 |  |  |  | < 1000 nM | < 1000 nM | < 1000 nM | Cc1cc(N)ncc1-c1cc(Nc2cnc3ccccc3c2)nc(N2CCOCC2)n1 [Compound 201]
40 | < 1000 nM | < 1000 nM | < 10000 nM |  |  |  | N#Cc1ccnc(Nc2cc(-c3ccc(N)nc3)nc(N3CCOCC3)n2)c1 [Compound 152]
